Results taken from article PMC5923414, “Terpenoids from the Soft Coral Sinularia sp. Collected in Yongxing Island” (Marine Drugs, 2018).
Read-outs that look alike come from different tables or passages of the source.

Columns and labels:
[1] = test system: Plasmodium falciparum 3D7; assay: in vitro antimalarial activity, SYBR-Green assay; assay type: cell-based; conditions: 10 nM dihydroartemisinine as positive control, read-out: IC50, antimalarial activity against P. falciparum 3D7
Description: The in vitro antimalarial activity was assessed against P. falciparum (3D7) using an SYBR-Green assay with 10 nM dihydroartemisinine as positive control. Twelve diluted samples (5 µM, 10 µM, 20 µM, 40 µM, 80 µM, 100 µM, 200 µM, 400 µM, 800 µM, 1 mM, 2 mM, and 4 mM) were added to the test wells to obtain the 50% inhibiting concentration.

cytotoxicity, MTT method = assay type: cell-based; conditions: human
Description: The cytotoxicities against Jurkat, MDA-MB-231, U2OS, HeLa, HCT-116, and A549 cell lines were assayed by MTT method with Adriamycin as a positive control. All the cell lines were purchased from Shanghai Institute of Cell Biology (Shanghai, China).

influenza A virus (H1N1) = assay: antiviral activity, CPE inhibition assay; assay type: cell-based
Description: (§1) The antiviral activities against influenza A virus (H1N1) and (PR8) were evaluated by the CPE inhibition assay as the literature reported. […]

influenza A virus (PR8) = assay: antiviral activity, CPE inhibition assay; assay type: cell-based; conditions: read-out: IC50 against influenza A virus PR8
Description: as §1

acetylcholinesterase = acetylcholinesterase (Homo sapiens, UniProt P22303); assay: acetylcholinesterase inhibition, Ellman spectrophotometric method; assay type: biochemical; conditions: at 50 μg/mL; read-out: inhibition rate against acetylcholinesterase
acetylcholinesterase, sequence (P22303 32-614, species assumed): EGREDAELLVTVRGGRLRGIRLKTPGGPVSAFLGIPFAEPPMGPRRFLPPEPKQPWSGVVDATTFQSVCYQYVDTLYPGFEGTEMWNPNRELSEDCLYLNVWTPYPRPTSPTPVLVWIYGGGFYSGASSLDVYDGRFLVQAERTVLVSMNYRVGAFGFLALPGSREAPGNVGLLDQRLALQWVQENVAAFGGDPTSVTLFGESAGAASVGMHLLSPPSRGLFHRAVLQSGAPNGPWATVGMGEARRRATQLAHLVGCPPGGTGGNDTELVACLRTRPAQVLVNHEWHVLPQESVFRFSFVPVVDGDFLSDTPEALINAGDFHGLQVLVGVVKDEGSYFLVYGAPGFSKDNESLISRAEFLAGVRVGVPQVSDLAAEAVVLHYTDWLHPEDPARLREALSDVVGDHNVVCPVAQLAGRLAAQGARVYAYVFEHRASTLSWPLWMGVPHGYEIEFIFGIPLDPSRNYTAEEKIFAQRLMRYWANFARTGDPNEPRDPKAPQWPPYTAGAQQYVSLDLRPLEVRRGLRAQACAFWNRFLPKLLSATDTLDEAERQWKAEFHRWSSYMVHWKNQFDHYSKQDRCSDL
Description: (§2) Evaluation of the inhibitory effects on acetylcholinesterase was performed by the spectrophotometric method developed by Ellman with slight modifications as reported, and on c-Met and PTP1B by using the enzyme-linked immunosorbent assay (ELISA) methodology.

[2] = target: T1, protein tyrosine phosphatase 1B (PTP1B) (Homo sapiens, UniProt P18031); assay: biochemical; conditions: read-out: IC50, target inhibitory activity against PTP1B
T1 sequence (P18031 1-435): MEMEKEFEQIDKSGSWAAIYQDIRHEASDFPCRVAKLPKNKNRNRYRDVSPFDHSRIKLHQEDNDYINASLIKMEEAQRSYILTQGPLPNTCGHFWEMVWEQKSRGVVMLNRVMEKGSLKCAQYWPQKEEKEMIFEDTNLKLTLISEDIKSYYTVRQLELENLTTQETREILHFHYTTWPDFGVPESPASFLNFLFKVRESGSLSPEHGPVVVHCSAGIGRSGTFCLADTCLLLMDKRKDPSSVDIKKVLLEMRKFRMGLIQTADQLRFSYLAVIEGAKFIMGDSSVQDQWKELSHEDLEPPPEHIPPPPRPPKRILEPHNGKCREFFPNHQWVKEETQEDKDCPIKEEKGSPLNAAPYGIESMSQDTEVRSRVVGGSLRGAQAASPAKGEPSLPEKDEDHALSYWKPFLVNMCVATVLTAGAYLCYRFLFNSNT
Description: as §2

Work on `C=C1CCC2(O)CC3(CCC(C(C)C)C3C1)OO2` (stereo not shown) [Compound 1, Sinuketal] yielded an IC50 [1] of 80 µM, an IC50 (cytotoxicity, MTT method; Jurkat cells, Jurkat cell line, read-out: IC50, cytotoxic activity toward Jurkat) of 24.9 µM and an IC50 (cytotoxicity, MTT method; MDA-MB-231 cells, MDA-MB-231 cell line, read-out: IC50, cytotoxic activity toward MDA-MB-231) of 32.3 µM. It also gave an IC50 (cytotoxicity, MTT method; U2OS cells, U2OS cell line, read-out: IC50, cytotoxic activity toward U2OS) of 41.7 µM, an IC50 (influenza A virus (H1N1); H1N1, read-out: IC50 against influenza A virus H1N1) of 172 µM and an IC50 (influenza A virus (PR8)) of 443 µM. The inhibition at 50 µg/mL (acetylcholinesterase) was 20.2%.
`C=C(C)C1CC=C(C(=O)OC)CC(=O)CC2(C)CC(=O)C(CC(=O)C1)O2` (stereo not shown) [Compound 5, sinulin D] showed an IC50 [2] of 47.5 µM.
`CC(C)[C@@H]1CC[C@@](C)(O)[C@@H]2CCC(CO)=C[C@H]21` [Compound 11, 15-hydroxy-α-cadinol] showed an IC50 [2] of 22.1 µM.
For `C=C(C)C1CCC(C)=CCCC(C)=CCCC2(C)OC2C1` [Compound 15, (1R,3S,4S,7E,11E)-3,4-epoxycembra-7,11,15-triene], the IC50 [2] was 12.5 µM.
For `C=C(C)[C@@H]1C/C=C2\C(=O)O[C@@H](C[C@]3(C)CC(=O)[C@H](CC(=O)C1)O3)[C@@H]2O` [Compound 20, 5-episinuleptolide], the IC50 (cytotoxicity, MTT method; HCT-116 cells, HCT-116 cell line, read-out: IC50, cytotoxicity against HCT-116) was 33.3 µM and the IC50 (cytotoxicity, MTT method; HeLa cells, HeLa cell line, read-out: IC50, cytotoxicity against HeLa) was 11.6 µM.
`NC(=O)c1ncn([C@@H]2O[C@H](CO)[C@@H](O)[C@H]2O)n1` [ribavirin, reference compound] gave an IC50 (influenza A virus (H1N1); positive control, strain (H1N1 or PR8) not specified, read-out: IC50 of positive control, influenza A viruses) of 103 µM.
